Reference: ChEMBL document CHEMBL1201862, “PubChem BioAssay data set” (2004)
Activity calls are given as the source filed them.

Experiments:
Cytochrome P450 2D6 = Cytochrome P450 2D6 (Homo sapiens, UniProt P10635);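 also: CYP2D6 member of a cytochrome P450 panel assay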
Cytochrome P450 2C9 = Cytochrome P450 2C9 (Homo sapiens, UniProt P11712)
[1] = molecular target: T1, Polyadenylate-binding protein 1 (Homo sapiens, UniProt P11940); experiment: MLLE binding blockers, Cy5 peptide tracer – biochemical, fluorescence polarization, Cy5-PAM2 peptide, secondary, miRNA deadenylation inhibitor project, dose response (AID 602260); format: functional; conditions: read-out: IC50_Mean
[2] = molecular target: T1, Polyadenylate-binding protein 1; experiment: MLLE domain peptide-binding blockers, IC50 – biochemical, fluorescence polarization, FITC-PAM2 peptide, dose response (AID 602259); format: functional; conditions: read-out: IC50_Mean
Cytochrome P450 1A2 = molecular target: T2, Cytochrome P450 1A2 (Homo sapiens, UniProt P05177);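 also: PubChem cytochrome P450 panel assay, CYP1A2 panel member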
T2 sequence (P05177 whole entry): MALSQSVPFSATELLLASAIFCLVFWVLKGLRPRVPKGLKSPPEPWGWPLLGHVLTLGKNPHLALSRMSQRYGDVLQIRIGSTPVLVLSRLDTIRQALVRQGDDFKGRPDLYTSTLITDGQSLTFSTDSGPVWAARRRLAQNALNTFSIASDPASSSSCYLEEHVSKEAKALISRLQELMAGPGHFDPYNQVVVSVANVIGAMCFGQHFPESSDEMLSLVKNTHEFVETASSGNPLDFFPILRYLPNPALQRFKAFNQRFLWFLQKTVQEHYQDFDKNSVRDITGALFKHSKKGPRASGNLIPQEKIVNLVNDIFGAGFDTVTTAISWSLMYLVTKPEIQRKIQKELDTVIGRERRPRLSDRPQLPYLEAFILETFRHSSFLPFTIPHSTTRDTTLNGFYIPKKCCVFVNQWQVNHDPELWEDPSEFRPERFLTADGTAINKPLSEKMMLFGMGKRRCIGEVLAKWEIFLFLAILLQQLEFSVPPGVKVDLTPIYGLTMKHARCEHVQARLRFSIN

[3] = molecular target: T3, Corticotropin-releasing factor receptor 2/Corticotropin-releasing factor-binding protein (Homo sapiens, UniProt P24387+Q13324); experiment: activators of CRF receptor 2 with binding protein – uHTS hits, confirmation (AID 602473); format: functional; conditions: read-out: EC50_Mean
T3 sequence (Q13324 whole entry): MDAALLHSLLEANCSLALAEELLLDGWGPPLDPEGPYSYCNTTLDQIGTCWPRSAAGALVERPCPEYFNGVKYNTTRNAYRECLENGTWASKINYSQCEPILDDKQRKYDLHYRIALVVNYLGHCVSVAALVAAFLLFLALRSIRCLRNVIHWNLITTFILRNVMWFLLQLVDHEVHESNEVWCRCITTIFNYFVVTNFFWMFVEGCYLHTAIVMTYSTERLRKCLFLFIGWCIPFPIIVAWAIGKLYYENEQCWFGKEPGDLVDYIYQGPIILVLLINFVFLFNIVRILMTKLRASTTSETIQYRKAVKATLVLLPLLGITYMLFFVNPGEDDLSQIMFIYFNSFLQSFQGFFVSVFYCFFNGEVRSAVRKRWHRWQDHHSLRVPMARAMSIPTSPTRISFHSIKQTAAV
T3 sequence (P24387 whole entry): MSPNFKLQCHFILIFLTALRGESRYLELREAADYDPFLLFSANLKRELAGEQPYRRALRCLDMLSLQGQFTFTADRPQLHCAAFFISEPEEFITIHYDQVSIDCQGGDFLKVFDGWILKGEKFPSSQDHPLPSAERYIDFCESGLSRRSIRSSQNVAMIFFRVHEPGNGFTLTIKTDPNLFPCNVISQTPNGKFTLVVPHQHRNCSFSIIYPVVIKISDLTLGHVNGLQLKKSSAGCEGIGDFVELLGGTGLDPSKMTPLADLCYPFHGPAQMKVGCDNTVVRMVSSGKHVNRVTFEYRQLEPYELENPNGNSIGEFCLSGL

Cytochrome P450 3A4 = Cytochrome P450 3A4 (Homo sapiens, UniProt P08684);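 also: CYP3A4 tested as one member of a cytochrome P450 panel screen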
[4] = molecular target: T3, Corticotropin-releasing factor receptor 2/Corticotropin-releasing factor-binding protein; experiment: Dose Response confirmation of uHTS hits for small molecule antagonists of the CRF-binding protein and CRF-R2 receptor complex.; format: functional; conditions: read-out: IC50_Mean
Cytochrome P450 2C19 = Cytochrome P450 2C19 (Homo sapiens, UniProt P33261); experiment: Cytochrome panel assay with activity outcomes. Panel member name: p450-cyp2c19 Compounds with AC50 equal or less than 10 uM are considered active; format: functional
[5] = NIH-3T3 fibroblast cytotoxicity, dose response, cytotoxicity control, cell-based, fluorescence, Alamar Blue, secondary assay (AID 2327); format: functional;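 also: NIH-3T3 mouse fibroblasts cultured with fluconazole at 8 µg/mL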
[6] = fluconazole-exposed Candida albicans growth modulators – fluorescence, retest, confirmation (AID 2467); format: functional, cell-based

Sequence of Cytochrome P450 2D6 (P10635 whole entry): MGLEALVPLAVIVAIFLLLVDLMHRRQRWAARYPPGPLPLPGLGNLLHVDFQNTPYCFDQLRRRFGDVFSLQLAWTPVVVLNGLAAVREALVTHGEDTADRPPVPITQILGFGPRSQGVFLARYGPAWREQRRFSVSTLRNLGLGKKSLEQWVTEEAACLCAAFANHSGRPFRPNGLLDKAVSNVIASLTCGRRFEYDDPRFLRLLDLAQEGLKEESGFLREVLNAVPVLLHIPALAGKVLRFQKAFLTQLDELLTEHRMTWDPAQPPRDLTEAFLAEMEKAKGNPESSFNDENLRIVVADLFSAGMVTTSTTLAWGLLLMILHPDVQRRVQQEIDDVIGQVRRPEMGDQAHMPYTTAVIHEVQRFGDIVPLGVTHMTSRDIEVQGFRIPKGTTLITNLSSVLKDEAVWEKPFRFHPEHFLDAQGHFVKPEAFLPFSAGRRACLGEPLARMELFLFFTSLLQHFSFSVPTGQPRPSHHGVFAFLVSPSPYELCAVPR
Sequence of Cytochrome P450 2C9 (P11712 whole entry): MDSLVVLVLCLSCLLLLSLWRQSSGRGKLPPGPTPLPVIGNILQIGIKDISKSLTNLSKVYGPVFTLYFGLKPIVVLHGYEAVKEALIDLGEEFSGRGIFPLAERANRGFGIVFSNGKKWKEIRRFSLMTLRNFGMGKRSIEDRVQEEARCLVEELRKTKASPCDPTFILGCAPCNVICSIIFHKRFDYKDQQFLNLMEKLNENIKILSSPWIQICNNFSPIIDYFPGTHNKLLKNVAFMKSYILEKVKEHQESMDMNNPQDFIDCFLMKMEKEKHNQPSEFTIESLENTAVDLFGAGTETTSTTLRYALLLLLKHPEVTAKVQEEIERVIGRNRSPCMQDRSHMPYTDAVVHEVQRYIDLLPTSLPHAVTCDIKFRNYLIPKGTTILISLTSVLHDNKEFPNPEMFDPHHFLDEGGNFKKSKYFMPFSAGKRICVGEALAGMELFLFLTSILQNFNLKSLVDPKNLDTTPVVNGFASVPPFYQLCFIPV
Sequence of Cytochrome P450 3A4 (P08684 whole entry): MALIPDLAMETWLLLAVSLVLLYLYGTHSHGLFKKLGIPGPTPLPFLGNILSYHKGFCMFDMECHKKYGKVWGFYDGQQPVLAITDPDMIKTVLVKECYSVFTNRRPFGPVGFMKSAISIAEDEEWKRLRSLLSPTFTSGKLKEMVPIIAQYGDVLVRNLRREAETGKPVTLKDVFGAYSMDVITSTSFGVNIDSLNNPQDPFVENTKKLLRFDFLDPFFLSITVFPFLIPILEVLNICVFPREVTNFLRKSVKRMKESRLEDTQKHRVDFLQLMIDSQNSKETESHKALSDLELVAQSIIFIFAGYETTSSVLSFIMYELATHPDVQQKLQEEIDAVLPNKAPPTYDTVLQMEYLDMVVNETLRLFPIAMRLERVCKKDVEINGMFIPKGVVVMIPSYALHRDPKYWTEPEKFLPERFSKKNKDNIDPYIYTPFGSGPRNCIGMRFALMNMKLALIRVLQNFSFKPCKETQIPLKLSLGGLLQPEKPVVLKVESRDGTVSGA
T1 sequence (P11940 whole entry, the tested form may be a part): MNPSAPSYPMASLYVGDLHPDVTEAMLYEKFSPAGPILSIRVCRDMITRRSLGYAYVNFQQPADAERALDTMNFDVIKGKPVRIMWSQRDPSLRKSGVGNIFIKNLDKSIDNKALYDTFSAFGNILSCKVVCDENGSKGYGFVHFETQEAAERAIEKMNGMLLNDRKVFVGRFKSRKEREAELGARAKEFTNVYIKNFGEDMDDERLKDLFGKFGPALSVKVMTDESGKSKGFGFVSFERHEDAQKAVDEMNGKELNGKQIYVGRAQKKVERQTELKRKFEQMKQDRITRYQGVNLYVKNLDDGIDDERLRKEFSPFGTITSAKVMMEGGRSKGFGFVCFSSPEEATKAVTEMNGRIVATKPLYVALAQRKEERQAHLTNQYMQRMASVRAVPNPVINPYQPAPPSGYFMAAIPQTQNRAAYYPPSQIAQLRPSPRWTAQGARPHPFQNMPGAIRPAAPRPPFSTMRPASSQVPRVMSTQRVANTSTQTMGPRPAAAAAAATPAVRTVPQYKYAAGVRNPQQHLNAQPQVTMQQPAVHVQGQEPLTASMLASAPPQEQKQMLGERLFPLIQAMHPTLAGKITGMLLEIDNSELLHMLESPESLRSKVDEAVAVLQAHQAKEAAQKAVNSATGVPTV
Sequence of Cytochrome P450 2C19 (P33261 whole entry): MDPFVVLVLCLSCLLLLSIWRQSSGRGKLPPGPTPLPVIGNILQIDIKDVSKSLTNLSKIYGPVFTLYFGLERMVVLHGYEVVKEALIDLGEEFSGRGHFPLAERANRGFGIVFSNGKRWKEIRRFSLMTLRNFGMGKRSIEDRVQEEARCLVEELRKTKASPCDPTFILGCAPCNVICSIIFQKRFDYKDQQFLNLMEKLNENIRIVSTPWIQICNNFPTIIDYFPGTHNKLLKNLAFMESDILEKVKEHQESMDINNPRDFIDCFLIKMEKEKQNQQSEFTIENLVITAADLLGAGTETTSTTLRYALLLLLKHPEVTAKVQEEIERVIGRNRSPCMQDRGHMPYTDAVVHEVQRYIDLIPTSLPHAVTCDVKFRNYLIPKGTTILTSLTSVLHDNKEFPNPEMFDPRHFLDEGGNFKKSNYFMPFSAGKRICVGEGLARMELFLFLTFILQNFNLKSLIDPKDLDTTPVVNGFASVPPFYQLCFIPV

For `CN(C)/C=N/c1ccc2nn(-c3ccccc3)nc2c1`, the AC50 (Cytochrome P450 2D6) was 25.1 µM (inconclusive) and the AC50 (Cytochrome P450 2C9) was 15.8 µM (inconclusive).
For `Cc1ccc(C(=O)NC(=S)NNS(=O)(=O)c2ccccc2)cc1`, the IC50 [1] was > 66 µM (inactive) and the IC50 [2] was > 66 µM (inactive).
In the case of `O=C(c1cc(C(F)(F)F)cc(C(F)(F)F)c1)N1CCC2(CC1)CN(c1ccccn1)C2`, the AC50 (Cytochrome P450 2D6) was 12.6 µM (inconclusive).
With `COc1ccc(CCN(C)Cc2ccc(OCc3ccccc3)c(OC)c2)cc1OC` the AC50 (Cytochrome P450 2D6) was 14.1 µM (inconclusive), the AC50 (Cytochrome P450 1A2) was 39.8 µM (inconclusive) and the AC50 (Cytochrome P450 2C9) was 15.8 µM (inconclusive).
With `CCN1CCc2c(C#N)c(N3CCOCC3)nc(NCCO)c2C1` the IC50 [1] was > 66 µM (inactive) and the IC50 [2] was > 66 µM (inactive).
For `O=Cc1c(N2CCN(CCO)CC2)nc2ccccn2c1=O`, the IC50 [1] was > 66 µM (inactive), the IC50 [2] was > 66 µM (inactive) and the EC50 [3] was > 53 µM (inactive).
With `COc1ccccc1CNc1cc(-c2ccccc2C)ncn1` the AC50 (Cytochrome P450 2D6) was 15.8 µM (inconclusive) and the AC50 (Cytochrome P450 3A4) was 31.6 µM (inconclusive).
With `Nc1nc(NCCc2ccc(O)cc2)nc2nc(-c3ccco3)nn12` [ZM-241385] the AC50 (Cytochrome P450 2D6) was 10 µM (inconclusive), the AC50 (Cytochrome P450 1A2) was 31.6 µM (inconclusive) and the AC50 (Cytochrome P450 2C9) was 39.8 µM (inconclusive).
With `O=C(NC(=S)Nc1cccnc1)c1cccs1` the IC50 [1] was > 66 µM (inactive) and the IC50 [2] was > 66 µM (inactive).
With `CC(=O)C1(O)CCC2C3CC(C)C4=CC(=O)C=CC4(C)C3(F)C(O)CC21C` (stereo not given) the IC50 [4] was > 47.1 µM (inactive) and the EC50 [3] was > 53 µM (inactive).
With `Cc1ccc(C(=O)NC(=S)Nc2cccc(-c3nc4ccccc4s3)c2)cc1` the IC50 [1] was > 66 µM (inactive) and the IC50 [2] was > 66 µM (inactive).
In the case of `Cc1ccccc1-c1nc(C[S+]([O-])CC(=O)N2CCC3(CC2)OCCO3)c(C)o1` (stereo not given), the AC50 (Cytochrome P450 2D6) was 25.1 µM (inconclusive) and the AC50 (Cytochrome P450 1A2) was 25.1 µM (inconclusive).
In the case of `CN(Cc1ccco1)c1ncncc1-c1ccoc1`, the AC50 (Cytochrome P450 2C19; read-out: AC50) was 39.8 µM (inconclusive), the AC50 (Cytochrome P450 2D6) was 39.8 µM (inconclusive) and the AC50 (Cytochrome P450 3A4) was 3.16 µM (inconclusive).
With `O=[N+]([O-])/C=C\c1cc2ccccc2[nH]1` the AC50 (Cytochrome P450 2C19; read-out: AC50) was 5.01 µM (inconclusive) and the AC50 (Cytochrome P450 2D6) was 5.01 µM (inconclusive).
For `CCOc1ccc(-n2c(C)nc3cc(C(=O)NCc4ccco4)ccc32)cc1`, the AC50 (Cytochrome P450 2D6) was 11.2 µM (inconclusive) and the AC50 (Cytochrome P450 1A2) was 25.1 µM (inconclusive).
In the case of `Cn1cccc1C(=O)N1CCC2(CCCN(c3ccccn3)C2)CC1`, the AC50 (Cytochrome P450 2D6) was 25.1 µM (inconclusive), the AC50 (Cytochrome P450 1A2) was 20 µM (inconclusive) and the AC50 (Cytochrome P450 3A4) was 20 µM (inconclusive). The AC50 (Cytochrome P450 2C9) was 25.1 µM (inconclusive).
With `COc1ccc2sc(-c3ccc(S(C)(=O)=O)cc3)c(C(=O)NCCc3c[nH]c4ccccc34)c2c1` the IC50 [4] was > 47.1 µM (inactive) and the EC50 [3] was > 53 µM (inactive).
In the case of `Cc1cc(O)nc(SCn2nnc3ccccc3c2=O)n1`, the IC50 [1] was > 66 µM (inactive) and the IC50 [2] was > 66 µM (inactive).
In the case of `CN(C1CCCCC1)S(=O)(=O)c1ccc(S)nc1`, the IC50 [1] was > 66 µM (inactive) and the IC50 [2] was > 66 µM (inactive).
In the case of `CCN(CC(=O)NCc1ccc(Cl)cc1)C(=O)CNS(=O)(=O)c1ccc(NC(C)=O)cc1`, the IC50 [1] was > 66 µM (inactive) and the IC50 [2] was > 66 µM (inactive).
For `COc1ccc(CCC(C)Nc2cccc(F)c2)cc1` (stereo not given), the AC50 (Cytochrome P450 2D6) was 10 µM (inconclusive).
With `Cc1cc(C)n(N=C(S)NC2CCCCC2)c(=O)c1C#N` the IC50 [1] was > 66 µM (inactive) and the IC50 [2] was > 66 µM (inactive).
In the case of `CCN(CC)S(=O)(=O)c1cccc(C(=O)Nc2ccc3c(c2)OCO3)c1`, the IC50 [4] was > 47.1 µM (inactive) and the EC50 [3] was > 53 µM (inactive).
For `CC(N=C(S)Nc1ccccc1C(F)(F)F)C1CC2CCC1C2` (stereo not given), the IC50 [1] was > 66 µM (inactive) and the IC50 [2] was > 66 µM (inactive).
For `CC12CCC(C(=O)Nc3ncc([N+](=O)[O-])s3)(OC1=O)C2(C)C` (stereo not given), the EC50 [5] was > 160 µM (inactive), the EC50 [6] was 0.629 µM (active) and the AC50 (Cytochrome P450 2C19) was “inconclusive”. For the same compound, the IC50 [4] was > 47.1 µM (inactive), the EC50 [3] was > 53 µM (inactive) and the AC50 (Cytochrome P450 2C9) was 11.2 µM (inconclusive).
For `CN(C)c1ncc2nc(CCc3ccccc3)c(=O)n(Cc3ccc(F)cc3)c2n1`, the AC50 (Cytochrome P450 2D6) was 25.1 µM (inconclusive) and the AC50 (Cytochrome P450 3A4) was 3.98 µM (inconclusive).
With `COC(=O)c1c(C)oc2ccc(N(C(=O)c3ccncc3)S(=O)(=O)c3ccccc3)cc12` the AC50 (Cytochrome P450 2D6) was 0.0355 µM (inconclusive).
With `COC(=O)c1ccc(CSc2nc3ccccc3c(=O)n2-c2cccc(OC)c2)o1` the IC50 [4] was 4.06 µM (active) and the EC50 [3] was > 53 µM (inactive).
In the case of `COc1ccc(CCNC(=O)COc2ccc(N(C)S(=O)(=O)c3ccc(C)cc3)cc2)cc1OC`, the IC50 [4] was > 47.1 µM (inactive) and the EC50 [3] was > 53 µM (inactive).
For `Cc1cccc(N2CCN(S(=O)(=O)c3ccc(Cl)nc3)CC2C)c1` (stereo not given), the IC50 [4] was > 47.1 µM (inactive) and the EC50 [3] was > 53 µM (inactive).
For `CC1(C)CC(=O)C2=C(C1)N(Cc1ccco1)C(=O)C2(O)C(F)(F)F` (stereo not given), the IC50 [4] was > 47.1 µM (inactive) and the EC50 [3] was > 53 µM (inactive).
For `O=C(NC(=S)Nc1cccc(O)c1)c1cncc(Br)c1`, the IC50 [1] was > 66 µM (inactive) and the IC50 [2] was > 66 µM (inactive).
In the case of `COC(=O)CC(NC(=O)c1ccc(C)cc1)c1ccc2c(c1)OCO2` (stereo not given), the IC50 [4] was > 47.1 µM (inactive) and the EC50 [3] was > 53 µM (inactive).
For `O=C(NNC(=O)c1cccc(S(=O)(=O)N2CCCCC2)c1)c1ccccc1`, the IC50 [4] was > 47.1 µM (inactive) and the EC50 [3] was > 53 µM (inactive).
